Source: patent US20160046618A1, “Cyclopropyl Fused Thiazin-2-Amine Compounds as Beta-Secretase Inhibitors and Methods of Use” (AMGEN INC., priority 2014, published 2016)
Where two headings read alike, the source gives them in different places.

Experiments:
[1] = target: human recombinant BACE2 (Homo sapiens (Human), UniProt Q9Y5Z0); test: In vitro enzymatic BACE2 FRET assay; assay type: biochemical; details: BACE2 FRET enzyme assay; read-out: IC50 IP (μM) BACE2 enzyme
Method: (§1) These recombinant proteins were further purified using Ni-NTA affinity chromatography (Qiagen). […] This assay is effectively started by the addition of FRET substrate (50 nM) and the combination is incubated for one hour. The FRET assay is terminated by addition of Tris buffer, which raises the pH to neutrality, and the fluorescence is determined. The FRET substrate is a peptide with commercially available fluorophore and quencher, on opposite sides of the BACE cleavage site. Proteolytic cleavage of the FRET substrate releases quenching of fluorescence (excitation 488 nm and emission 590 nm).

[2] = tested on: Aβ40 in conditioned medium of cells stably expressing Amyloid Precursor Protein (APP); test: In vitro BACE-1 cell-based assay (Aβ40 sandwich ELISA); details: BACE1 cell-based assay; read-out: IC50 IP (μM) BACE1 cell
Method: In Vitro BACE-1 Cell-Based Assay
The cell-based assay measures inhibition or reduction of Aβ40 in conditioned medium of test compound treated cells expressing amyloid precursor protein. Cells stably expressing Amyloid Precursor Protein (APP) were plated at a density of 40K cells/well in 96 well plates (Costar). The cells were cultivated for 24 hours at 37° C. and 5% CO2 in DMEM supplemented with 10% FBS. The test compounds were then added to cells in 10-point dose response concentrations with the starting concentration being either 100 μM or 10 μM. The compounds were diluted from stock solutions in DMSO and the final DMSO concentration of the test compounds on cells was 0.1%. After 24 h of incubation with the test compounds the supernatant conditioned media was collected and the Aβ40 levels were determined using a sandwich ELISA. The IC50 of the compound was calculated from the percent of control or percent inhibition of Aβ40 as a function of the concentration of the test compound.
The sandwich ELISA to detect Aβ40 was performed in 96 well microtiter plates, which were pre-treated with goat anti-rabbit IgG (Pierce). The capture and detecting antibody pair that were used to detect Aβ40 from cell supernatants were affinity purified pAb40 (Biosource) and biotinylated 6E10 (Signet Labs Inc.), respectively. The optimal concentration for the pAb40 antibody was 3 μg/ml in Superblock/TBS (Pierce) that was supplemented with 0.05% Tween 20 (Sigma). […] Cellular supernatants were incubated with the capture antibody for 3 h at 4° C., followed by 3 wash steps in TBS-tween (0.05%). The detecting antibody incubation was for 2 h at 4° C., again followed by the wash steps as described previously. The final readout of the ELISA is Time-Resolved Fluorescence (counts per minute) using Delfia reagents Streptavidin-Europium and Enhancement solutions (Perkin Elmer) and the Victor 2 multilabel counter (Perkin Elmer).

[3] = target: Recombinant Cat D (Homo sapiens (Human), UniProt P07339); test: In vitro enzymatic Cathepsin D (Cat D) FRET assay; assay type: biochemical
Sequence of Recombinant Cat D (P07339 65-412): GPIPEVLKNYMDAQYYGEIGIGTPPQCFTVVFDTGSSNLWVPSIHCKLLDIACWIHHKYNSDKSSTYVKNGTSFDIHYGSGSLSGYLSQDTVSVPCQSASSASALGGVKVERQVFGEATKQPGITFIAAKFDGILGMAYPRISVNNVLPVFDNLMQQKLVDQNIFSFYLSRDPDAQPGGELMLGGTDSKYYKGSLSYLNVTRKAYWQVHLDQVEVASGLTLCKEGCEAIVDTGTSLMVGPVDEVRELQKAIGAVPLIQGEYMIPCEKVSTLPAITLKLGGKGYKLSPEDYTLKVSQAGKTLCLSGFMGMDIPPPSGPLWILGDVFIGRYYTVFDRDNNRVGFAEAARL
Method: In Vitro Enzymatic Cathepsin D (Cat D) FRET (Fluorescence Resonance Energy Transfer) Assay
Recombinant Cat D was expressed in CHO cells. The assay buffer for CathepsinD is 0.05 M citrate pH 3.5, 10% DMSO final, 5 mM CHAPS. […] The assays are effectively started by the addition of different FRET substrates (20 nM for Cat D) and the combination is incubated for one hour. The FRET assay is terminated with by addition of Tris buffer, which raises the pH to neutrality, and the fluorescence is determined. The FRET substrate is a peptide with commercially available fluorophore and quencher, on opposite sides of the BACE cleavage site. The Cat D substrate peptide sequence is based on sequence #1 of Table 1 from Gulnik et al. FEBS Letters v413 p 379-384 1997. Proteolytic cleavage of the FRET substrate releases quenching of fluorescence (Cat D excitation 500 nm and emission 580 nm).

[4] = target: human recombinant BACE1 (Homo sapiens (Human), UniProt P56817); test: In vitro enzymatic BACE1 FRET assay; assay type: biochemical; details: BACE1 FRET enzyme assay; read-out: IC50 IP (μM) BACE1 enzyme
Sequence of human recombinant BACE1 (P56817 46-501): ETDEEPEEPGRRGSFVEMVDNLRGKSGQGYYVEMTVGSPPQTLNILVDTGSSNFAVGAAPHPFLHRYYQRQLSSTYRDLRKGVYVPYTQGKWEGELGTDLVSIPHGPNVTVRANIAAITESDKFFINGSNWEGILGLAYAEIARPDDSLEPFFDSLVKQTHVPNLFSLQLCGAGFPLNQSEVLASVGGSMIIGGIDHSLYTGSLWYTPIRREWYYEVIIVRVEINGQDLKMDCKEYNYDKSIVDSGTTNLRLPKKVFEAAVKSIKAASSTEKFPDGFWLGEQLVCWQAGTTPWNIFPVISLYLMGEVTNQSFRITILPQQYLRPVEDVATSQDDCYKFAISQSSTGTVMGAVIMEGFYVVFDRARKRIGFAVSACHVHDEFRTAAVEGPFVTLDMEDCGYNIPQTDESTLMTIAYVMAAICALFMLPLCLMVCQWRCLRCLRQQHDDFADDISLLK
Method: as §1

[5] = Cathepsin D FRET enzyme assay, read-out: IC50 IP (μM) CatD

Sequence of human recombinant BACE2 (Q9Y5Z0 63-518): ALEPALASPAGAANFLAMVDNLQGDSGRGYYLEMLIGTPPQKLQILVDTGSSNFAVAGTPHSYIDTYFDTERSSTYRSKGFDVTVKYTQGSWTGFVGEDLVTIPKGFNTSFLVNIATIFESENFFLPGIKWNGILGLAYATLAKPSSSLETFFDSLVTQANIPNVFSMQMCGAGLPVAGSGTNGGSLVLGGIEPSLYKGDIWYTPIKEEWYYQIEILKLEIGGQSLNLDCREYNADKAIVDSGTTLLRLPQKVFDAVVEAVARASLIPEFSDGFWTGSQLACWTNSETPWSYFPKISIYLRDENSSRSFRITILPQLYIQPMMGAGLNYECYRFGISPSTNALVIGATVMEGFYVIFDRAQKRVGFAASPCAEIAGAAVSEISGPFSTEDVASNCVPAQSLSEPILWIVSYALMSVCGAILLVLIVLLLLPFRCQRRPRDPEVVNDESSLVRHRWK

| SMILES | IC50 [1] [µM] | IC50 [2] [µM] | IC50 [3, 5] [µM] | IC50 [4] [µM] | IC50 ([3]; first procedure (FRET), read-out: Cat D IC50) [µM] |
| --- | --- | --- | --- | --- | --- |
| C[C@]1(c2cc(Nc3ncnc4cc(Cl)cnc34)cc(F)c2F)N=C(N)S[C@H]2C[C@H]21 [Example 34, N-(3-((1S,5S,6S)-3-amino-5-methyl-2-thia-4-azabicyclo[4.1.0]hept-3-en-5-yl)-4,5-difluorophenyl)-7-chloropyrido[3,2-d]pyrimidin-4-amine] | 0.0136 | 0.0317 | 295 | 0.0198 | – |
| NC1=N[C@](CF)(c2cc(NC(=O)c3ccc(Cl)cn3)ccc2F)[C@@H]2C[C@]2(CF)S1 [Example 41, N-(3-((1S,5S,6S)-3-amino-1,5-bis(fluoromethyl)-2-thia-4-azabicyclo[4.1.0]hept-3-en-5-yl)-4-fluorophenyl)-5-chloro-2-pyridinecarboxamide] | < 0.00203 | 0.00596 | > 400 | 0.00227 | – |
| NC1=N[C@](CF)(c2cc(NC(=O)c3ccc(Cl)cn3)ccc2F)[C@H]2C[C@@]2(CO)S1 [Example 42, N-(3-((1R,5S,6R)-3-amino-5-(fluoromethyl)-1-(hydroxymethyl)-2-thia-4-azabicyclo[4.1.0]hept-3-en-5-yl)-4-fluorophenyl)-5-chloro-2-pyridinecarboxamide] | 0.0039 | 0.00576 | 95.6 | 0.00601 | – |
| COC[C@]12C[C@H]1[C@@](CF)(c1cc(Nc3nccc4cc(C#N)cnc34)cc(F)c1F)N=C(N)S2 [Example 47, 8-((3-((1S,5S,6S)-3-amino-5-(fluoromethyl)-1-(methoxymethyl)-2-thia-4-azabicyclo[4.1.0]hept-3-en-5-yl)-4,5-difluorophenyl)amino)-1,7-naphthyridine-3-carbonitrile] | 0.00187 | 0.0162 | > 400 | 0.00318 | – |
| N#Cc1cnc2c(Nc3cc(F)c(F)c([C@@]4(CF)N=C(N)S[C@@]5(CO)C[C@H]54)c3)nccc2c1 [Example 48, 8-((3-((1S,5S,6S)-3-amino-5-(fluoromethyl)-1-(hydroxymethyl)-2-thia-4-azabicyclo[4.1.0]hept-3-en-5-yl)-4,5-fluorophenyl)amino)-7-naphthyridine-3-carbonitrile] | 0.00323 | 0.0149 | > 400 | 0.00357 | – |
| N#Cc1cnc2c(Nc3ccc(F)c([C@@]4(CF)N=C(N)S[C@@]5(CO)C[C@H]54)c3)nccc2c1 [Example 50, 8-((3-((1S,5S,6S)-3-amino-5-(fluoromethyl)-1-(hydroxymethyl)-2-thia-4-azabicyclo[4.1.0]hept-3-en-5-yl)-4-fluorophenyl)amino)-1,7-naphthyridine-3-carbonitrile] | 0.00286 | 0.00505 | > 133 | 0.00225 | – |
| C#CCOc1cnc(C(=O)Nc2ccc(F)c([C@@]3(CF)N=C(N)S[C@@]4(CO)C[C@H]43)c2)cn1 [Example 53, N-(3-((1S,5S,6S)-3-amino-5-(fluoromethyl)-1-(hydroxymethyl)-2-thia-4-azabicyclo[4.1.0]hept-3-en-5-yl)-4-fluorophenyl)-5-(2-propyn-1-yloxy)-2-pyrazinecarboxamide] | 0.0156 | 0.00045 | 349 | 0.00045 | – |
| C[C@]1(c2cc(Nc3ncnc4cc(C#N)cnc34)cc(F)c2F)N=C(N)S[C@@]2(CO)C[C@H]21 [Example 55, 4-((3-((1S,5S,6S)-3-amino-1-(hydroxymethyl)-5-methyl-2-thia-4-azabicyclo[4.1.0]hept-3-en-5-yl)-4,5-difluorophenyl)amino)pyrido[3,2-d]pyrimidine-7-carbonitrile] | 0.014 | 0.00457 | 227 | 0.00399 | – |
| N#Cc1cnc2c(Nc3cc(F)c(F)c([C@@]4(CF)N=C(N)S[C@]5(CO)C[C@@H]54)c3)nccc2c1 [Example 57, 8-((3-((1R,5S,6R)-3-amino-5-(fluoromethyl)-1-(hydroxymethyl)-2-thia-4-azabicyclo[4.1.0]hept-3-en-5-yl)-4,5-difluorophenyl)amino)-1,7-naphthyridine-3-carbonitrile] | 0.0235 | 0.0225 | 29.5 | 0.00563 | – |
| COc1cnc2c(Nc3cc(F)c(F)c([C@@]4(C)N=C(N)S[C@@]5(CO)C[C@H]54)c3)ncnc2c1 [Example 58, ((1S,5S,6S)-3-amino-5-(2,3-difluoro-5-((7-methoxypyrido[3,2-d]pyrimidin-4-yl)amino)phenyl)-5-methyl-2-thia-4-azabicyclo[4.1.0]hept-3-en-1-yl)methanol] | 0.0308 | 0.00306 | 975 | 0.00397 | – |
| NC1=N[C@](CF)(c2cc(NC(=O)c3ccc(Cl)cn3)cc(F)c2F)[C@@H]2C[C@]2(CF)S1 [Example 59, N-(3-((1S,5S,6S)-3-amino-1,5-bis(fluoromethyl)-2-thia-4-azabicyclo[4.1.0]hept-3-en-5-yl)-4,5-difluorophenyl)-5-chloro-2-pyridinecarboxamide] | < 0.00203 | 0.0229 | > 400 | 0.00114 | – |

More lines, now with the values ahead:

| IC50 [1] [µM] | IC50 [2] [µM] | IC50 [3, 5] [µM] | IC50 [4] [µM] | IC50 ([3]; first procedure (FRET), read-out: Cat D IC50) [µM] | SMILES |
| --- | --- | --- | --- | --- | --- |
| 0.00161 | 0.0014 | > 400 | 0.00332 | – | NC1=N[C@](CF)(c2cc(NC(=O)c3ccc(Cl)cn3)ccc2F)[C@@H]2C[C@]2(CO)S1 [Example 37, N-(3-((1S,5S,6S)-3-amino-5-(fluoromethyl)-1-(hydroxymethyl)-2-thia-4-azabicyclo[4.1.0]hept-3-en-5-yl)-4-fluorophenyl)-5-chloropicolinamide] |
| 0.00121 | 0.0065 | 2810 | 0.00553 | – | COC[C@]12C[C@H]1[C@@](CF)(c1cc(NC(=O)c3ccc(Cl)cn3)ccc1F)N=C(N)S2 [Example 40, N-(3-((1S,5S,6S)-3-amino-5-(fluoromethyl)-1-(methoxymethyl)-2-thia-4-azabicyclo[4.1.0]hept-3-en-5-yl)-4-fluorophenyl)-5-chloro-2-pyridinecarboxamide] |
| 0.00163 | 0.00995 | 755 | 0.00235 | > 400 | COC[C@]12C[C@H]1[C@@](CF)(c1cc(NC(=O)c3ccc(Cl)cn3)cc(F)c1F)N=C(N)S2 [Example 43, N-(3-((1S,5S,6S)-3-amino-5-(fluoromethyl)-1-(methoxymethyl)-2-thia-4-azabicyclo[4.1.0]hept-3-en-5-yl)-4,5-difluorophenyl)-5-chloro-2-pyridinecarboxamide] |
| 0.00147 | 0.00215 | > 400 | 0.00255 | – | Cc1cc(C#N)cnc1C(=O)Nc1ccc(F)c([C@@]2(CF)N=C(N)S[C@@]3(CO)C[C@H]32)c1 [Example 44, N-(3-((1S,5S,6S)-3-amino-5-(fluoromethyl)-1-(hydroxymethyl)-2-thia-4-azabicyclo[4.1.0]hept-3-en-5-yl)-4-fluorophenyl)-5-cyano-3-methyl-2-pyridinecarboxamide] |
| 0.00174 | 0.00767 | 204 | 0.00135 | – | C[C@]1(c2cc(Nc3nccc4cc(C#N)cnc34)cc(F)c2F)N=C(N)S[C@@]2(CF)C[C@H]21 [Example 60, 8-((3-((1S,5S,6S)-3-amino-1-(fluoromethyl)-5-methyl-2-thia-4-azabicyclo[4.1.0]hept-3-en-5-yl)-4,5-difluorophenyl)amino)-1,7-naphthyridine-3-carbonitrile] |
